{"source": "patent US20080241257A1", "about": "“Biodegradable Nanoparticles Incorporating Highly Hydrophilic Positively Charged Drugs” (THE BOARD OF TRUSTEES OF THE UNIVERSITY OF ILLINOIS, priority 2003, published 2008)", "system": "M. tuberculosis Erdman", "test": "M. tuberculosis chronic infection mouse model, CFU in the lungs", "assay_type": "in vivo, BALB/c mice", "data": [{"compound": "[H]/N=C(/N)N[C@H]1[C@H](O)[C@@H](O)[C@H](O[C@@H]2O[C@@H](C)[C@](O)(C=O)[C@H]2O[C@@H]2O[C@@H](CO)[C@H](O)[C@@H](O)[C@@H]2NC)[C@@H](N/C(N)=N\\[H])[C@@H]1O", "note": "[SM, streptomycin]", "values": [{"measurement": "log CFU in the lungs", "setting": "100 mg/kg injected subcutaneously (solution in water) daily for 3 weeks, control 6.88", "value": 6.13, "unit": "log CFU"}, {"measurement": "reduction in growth of the TB bacilli compared to the control group", "setting": "injected subcutaneously, 100 mg/kg daily 3 weeks, p<0.01", "value": "one"}]}]}
